These compounds were tested against T1, RIPK2 enzyme (Homo sapiens, UniProt O43353) (assay: RIPK2 inhibition (ADP-Glo Kinase Assay)). Settings: RIPK2 5 nM, ATP 150 μM, MBP substrate, read-out: RIPK2 IC50.
T1 construct: purchased Carna 09-128
Assay type: biochemical
In short: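 Human RIPK2 (5 nM) preincubated with compound 30 min at room temperature in 50 mM HEPES pH 7.5, 10 mM MgCl2, 2 mM DTT, 1 mM EGTA, 0.01% Brij-35, 0.05% BSA; native swine MBP as substrate. ADP formed quantified by ADP-Glo luminescence; percent inhibition relative to DMSO and no-enzyme controls.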

T1 sequence (O43353 1-299 limits assumed): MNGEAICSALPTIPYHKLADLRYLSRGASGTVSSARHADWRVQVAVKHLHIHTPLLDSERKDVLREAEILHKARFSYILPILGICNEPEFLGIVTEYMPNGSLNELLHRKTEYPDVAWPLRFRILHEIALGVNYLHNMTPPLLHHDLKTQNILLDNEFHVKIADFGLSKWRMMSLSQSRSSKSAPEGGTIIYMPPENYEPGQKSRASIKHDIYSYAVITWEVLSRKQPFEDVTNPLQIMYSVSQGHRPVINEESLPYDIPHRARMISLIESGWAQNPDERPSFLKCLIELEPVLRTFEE

| SMILES | IC50 |
| --- | --- |
| Cc1cc(CC(=O)Nc2cnn(C(C)(C)C)c2)c(F)cc1Oc1ccnc2ccc(N3CCOC3=O)cc12 [Compound 414, N-(1-(tert-butyl)-1H-pyrazol-4-yl)-2-(2-fluoro-5-methyl-4-((6-(2-oxooxazolidin-3-yl)quinolin-4-yl)oxy)phenyl) acetamide] | < 2.5 nM |
| CC(C)(C)n1cc(NC(=O)Cc2ncc(Oc3ncnc4ccc(O[C@H]5C[C@H]6CC[C@@H](C5)N6)cc34)cc2F)cn1 [Compound 289, 2-(5-((6-(((1R,3r,5S)-8-azabicyclo[3.2.1]octan-3-yl)oxy)quinazolin-4-yl)oxy)-3-fluoropyridin-2-yl)-N-(1-(tert-butyl)-1H-pyrazol-4-yl)acetamide] | 4.3 nM |
| COCCS(=O)(=O)c1ccc2nccc(Oc3ccc(CC(=O)Nc4cnn(C(C)(C)C)c4)cc3C)c2c1 [Compound 204, N-(1-(tert-butyl)-1H-pyrazol-4-yl)-2-(4-((6-((2-methoxyethyl)sulfonyl)quinolin-4-yl)oxy)-3-methylphenyl)acetamide] | < 2.5 nM |
| CC(C)(C)n1cc(NC(=O)Cc2ccc(Oc3ncnc4ccc(OCCO)cc34)cc2F)cn1 [Compound 16, N-(1-(tert-butyl)-1H-pyrazol-4-yl)-2-(2-fluoro-4-((6-(2-hydroxyethoxy)quinazolin-4-yl)oxy)phenyl)acetamide] | 9.3 nM |
| Cc1cc(CC(=O)Nc2cnn(C(C)(C)C)c2)c(F)cc1Oc1ccnc2ccc(C(=O)O)cc12 [Compound 358, 4-(4-(2-((1-(tert-butyl)-1H-pyrazol-4-yl)amino)-2-oxoethyl)-5-fluoro-2-methyl-phenoxy) quinoline-6-carboxylic acid] | < 2.5 nM |
| Cc1c(Oc2ccnc3ccc(O[C@H]4C[C@H]5CC[C@@H](C4)N5)cc23)ccc(CC(=O)Nc2cnn(C(C)(C)C)c2)c1F [Compound 409, 2-(4-((6-(((1R,3r,5S)-8-azabicyclo[3. 2.1]octan-3-yl)oxy)quinolin-4-yl)oxy)-2-fluoro-3-methyl-pheny1)-N-(1-(tert-butyl)-1H-pyrazol-4-yl)acetamide] | < 2.5 nM |
| CN1CCC(Oc2ccc3nccc(Oc4ccc(CC(=O)Nc5cc(C(C)(C)C)[nH]n5)c(F)c4)c3c2)CC1 [Compound 136, N-(5-(tert-butyl)-1H-pyrazol-3-yl)-2-(2-fluoro-4-((6-((1-methyl-piperidin-4-yl)oxy)quinolin-4-yl)oxy)phenyl) acetamide] | < 2.5 nM |
| CC(C)(C)n1cc(NC(=O)Cc2ccc(Oc3ccnc4ccc(S(C)(=O)=O)cc34)c(F)c2F)cn1 [Compound 167, N-(1-(tert-butyl)-1H-pyrazol-4-yl)-2-(2,3-difluoro-4-((6-(methylsulfonyl)quinolin-4-yl)oxy)phenyl)acetamide] | < 2.5 nM |
| Cc1c(Oc2ccnc3ccc(P(C)(C)=O)cc23)ccc(CC(=O)Nc2cc(C(C)(C)C)n[nH]2)c1F [Compound 383, N-(5-(tert-butyl)-1H-pyrazol-3-yl)-2-(4-((6-(dimethylphosphoryl)quinolin-4-yl)oxy)-2-fluoro-3-methylphenyl) acetamide] | < 2.5 nM |
| Cc1cc(CC(=O)Nc2cnn(C(C)(C)C)c2)ccc1Oc1ccnc2ccc(S(=O)(=O)C3CC(N)C3)cc12 (single isomer, unassigned) [Compound 282, 2-(4-((6-((-3-aminocyclobutyl)sulfonyl)quinolin-4-yl)oxy)-3-methylphenyl)-N-(1-(tert-butyl)-1H-pyrazol-4-yl)acetamide] | < 2.5 nM |
| CCn1nc(NC(=O)Cc2ccc(Oc3ccnc4ccc(S(C)(=O)=O)cc34)c(C)c2)cc1C(C)(C)C [Compound 232, N-(5-(tert-butyl)-1-ethyl-1H-pyrazol-3-yl)-2-(3-methyl-4-((6-(methylsulfonyl)quinolin-4-yl)oxy)phenyl)acetamide] | < 2.5 nM |
| COCCN(C)S(=O)(=O)c1ccc2nccc(Oc3ccc(CC(=O)Nc4cnn(C(C)(C)C)c4)c(F)c3C)c2c1 [Compound 276, N-(1-(tert-butyl)-1H-pyrazol-4-yl)-2-(2-fluoro-4-((6-(N-(2-methoxyethyl)-N-methylsulfamoyl)quinolin-4-yl)oxy)-3-methylphenyl)acetamide] | < 2.5 nM |
| Cc1cc(CC(=O)Nc2cnn(C(C)(C)C)c2)ccc1Oc1ccnc2ccc(OC3CNC3)cc12 [Compound 228, 2-(4-((6-(azetidin-3-yloxy)quinolin-4-yl)oxy)-3-methyl-pheny 1)-N-(1-(tert-butyl)-1H-pyrazol-4-yl)acetamide] | 5.9 nM |
| CC(C)(C)n1cc(NC(=O)Cc2ccc(Oc3ccnc4ccc(N5CCCC5=O)cc34)cc2F)cn1 [Compound 152, N-(1-(tert-butyl)-1H-pyrazol-4-yl)-2-(2-fluoro-4-((6-(2-oxopyrrolidin-1-yl)quinolin-4-yl)oxy)phenyl) acetamide] | < 2.5 nM |
| Cc1cc(CC(=O)Nc2cnn(C(C)(C)C)c2)ccc1Oc1ccnc2ccc(S(=O)(=O)CC3COC3)cc12 [Compound 240, N-(1-(tert-butyl)-1H-pyrazol-4-yl)-2-(3-methyl-4-((6-((oxetan-3-ylmethyl)sulfonyl)quinolin-4-yl)oxy)phenyl)acetamide] | < 2.5 nM |

Further lines, results first:

| IC50 | SMILES |
| --- | --- |
| < 2.5 nM | Cc1cc(CC(=O)Nc2cnn(C(C)(C)C)c2)c(F)cc1Oc1ccnc2ccc(S(=O)(=O)N3C[C@@H](C)N[C@@H](C)C3)cc12 [Compound 390, N-(1-(tert-butyl)-1H-pyrazol-4-yl)-2-(4-((6-(((3R,5S)-3,5-dimethylpiperazin-1-yl)sulfonyl)quinolin-4-yl)oxy)-2-fluoro-5-methylphenyl)acetamide] |
| < 2.5 nM | CN1CCC(S(=O)(=O)c2ccc3nccc(Oc4ccc(CC(=O)Nc5cnn(C(C)(C)C)c5)c(F)c4)c3c2)CC1 [Compound 125, N-(1-(tert-butyl)-1H-pyrazol-4-yl)-2-(2-fluoro-4-((6-((1-methylpiperidin-4-yl)sulfonyl)quinolin-4-yl)oxy)phenyl)acetamide] |
| < 2.5 nM | Cc1cc(CC(=O)Nc2cnn(C(C)(C)C)c2)ccc1Oc1ccnc2ccc(-c3ncc[nH]c3=O)cc12 [Compound 247, N-(1-(tert-butyl)-1H-pyrazol-4-yl)-2-(3-methyl-4-((6-(3-oxo-3,4-dihydropyrazin-2-yl)quinolin-4-yl)oxy)phenyl)acetamide] |
| < 2.5 nM | Cc1c(Oc2ccnc3ccc(N4CCCS4(=O)=O)cc23)ccc(CC(=O)Nc2cnn(C(C)(C)C)c2)c1F [Compound 279, N-(1-(tert-butyl)-1H-pyrazol-4-yl)-2-(4-((6-(1,1-dioxidoisothiazolidin-2-yl)quinolin-4-yl)oxy)-2-fluoro-3-methylphenyl) acetamide] |
| < 2.5 nM | Cc1cc(CC(=O)Nc2nnc(C(C)(C)C)o2)ccc1Oc1ccnc2ccc(S(C)(=O)=O)cc12 [Compound 431, N-(5-(tert-butyl)-1,3,4-oxadiazol-2-yl)-2-(3-methyl-4-((6-(methylsulfonyl)quinolin-4-yl)oxy)phenyl) acetamide] |
| < 2.5 nM | Cc1cc(CC(=O)Nc2cnn(C(C)(C)C)c2)ccc1Oc1ccnc2ccc(S(=O)(=O)C3CCC(=O)NC3)cc12 (centres unmarked) [Compound 243, N-(1-(tert-butyl)-1H-pyrazol-4-yl)-2-(3-methyl-4-((6-((6-oxopiperidin-3-yl)sulfonyl)quinolin-4-yl)oxy)phenyl)acetamide] |
| < 2.5 nM | Cc1cc(CC(=O)Nc2cnn(C(C)(C)C)c2)ccc1Oc1ccnc2cc(OCC(F)(F)F)c(S(C)(=O)=O)cc12 [Compound 219, N-(1-(tert-butyl)-1H-pyrazol-4-yl)-2-(3-methyl-4-((6-(methylsulfonyl)-7-(2,2,2-trifluoroethoxy)quinolin-4-yl)oxy)phenyl)acetamide] |
| < 2.5 nM | Cc1cc(CC(=O)Nc2cnn(C(C)(C)C)c2)c(F)cc1Oc1ccnc2ccc(CN3C[C@@H]4C[C@H]3CO4)cc12 [Compound 422, 2-(4-((6-(((1S,4S)-2-oxa-5-azabicyclo[2.2.1]heptan-5-yl)methyl)quinolin-4-yl)oxy)-2-fluoro-5-methylphenyl)-N-(1-(tert-butyl)-1H-pyrazol-4-yl)acetamide] |
| 4.9 nM | CCN1CCC(Oc2ccc3ncnc(Oc4cnc(CC(=O)Nc5cnn(C(C)(C)C)c5)c(F)c4)c3c2)CC1 [Compound 56, N-(1-(tert-butyl)-1H-pyrazol-4-yl)-2-(5-((6-((1-ethylpiperidin-4-yl)oxy)quinazolin-4-yl)oxy)-3-fluoropyridin-2-yl)acetamide] |
| < 2.5 nM | Cc1c(Oc2ccnc3ccc(S(=O)(=O)N(C)CCO)cc23)ccc(CC(=O)Nc2cnn(C(C)(C)C)c2)c1F [Compound 275, N-(1-(tert-butyl)-1H-pyrazol-4-yl)-2-(2-fluoro-4-((6-(N-(2-hydroxyethyl)-N-methylsulfamoyl)quinolin-4-yl)oxy)-3-methylphenyl)acetamide] |
| < 2.5 nM | Cc1c(Oc2ccnc3ccc(S(=O)(=O)C4CCNCC4)cc23)ccc(CC(=O)Nc2cnn(C(C)(C)C)c2)c1F [Compound 312, N-(1-(tert-butyl)-1H-pyrazol-4-yl)-2-(2-fluoro-3-methyl-4-((6-(piperidin-4-ylsulfonyl)quinolin-4-yl)oxy)phenyl)acetamide] |
| < 2.5 nM | Cc1c(Oc2ccnc3ccc([S+](C)[O-])cc23)ccc(CC(=O)Nc2cnn(C(C)(C)C)c2)c1F (single isomer, unassigned) [Compound 324, N-(1-(tert-butyl)-1H-pyrazol-4-yl)-2-(2-fluoro-3-methyl-4-((6-(methylsulfinyl)quinolin-4-yl)oxy)phenyl)acetamide] |
| < 2.5 nM | Cc1cc(CC(=O)Nc2cnn(C(C)(C)C)c2)ccc1Oc1ccnc2ccc(S(=O)(=O)C3CCOC3)cc12 (single isomer, unassigned) [Compound 199, N-(1-(tert-butyl)-1H-pyrazol-4-yl)-2-(3-methyl-4-((6-((tetrahydrofuran-3-yl)sulfonyl)quinolin-4-yl)oxy)phenyl)acetamide] |
| 14.4 nM | COc1ccc2ncnc(Oc3ccc(CC(=O)Nc4noc(C(C)(C)C)n4)c(F)c3)c2c1 [Compound 23, N-(5-(tert-butyl)-1,2,4-oxadiazol-3-yl)-2-(2-fluoro-4-((6-methoxy-quinazolin-4-yl)oxy)phenyl) acetamide] |

Reference: patent publication US12624018B1, “Inhibitors of RIPK2 and medical uses thereof” (Odyssey Therapeutics, Inc., priority 2022, dated 2026)
